Experimental data published in PMC2762271 (Journal of medicinal chemistry, 2009).

How the values were obtained:
[1] = test system: tubulin; test: Inhibition of tubulin polymerization; format: biochemical; settings: for fold less active than 5t as inhibitor of tubulin assembly: relative to 5t
[2] = test system: L1210, FM3A, Molt4, CEM, and HeLa cell lines; test: Antiproliferative activity, panel of five tumor cell lines; format: cell-based; settings: on average over the cell lines
[3] = test system: L1210; test: Antiproliferative activity, L1210 cell line; format: cell-based; settings: Mus musculus, L1210, read-out: IC50 L1210

## Nc1nc(Nc2ccccc2)sc1C(=O)c1ccccc1 [5a]
[1]
  fold less active than 5t as inhibitor of tubulin assembly: 5 fold

## COc1cccc(Nc2nc(N)c(C(=O)c3ccccc3)s2)c1 [5f]
[1]
  fold less active than 5t as inhibitor of tubulin assembly: 10 fold

## COc1cc(C(=O)c2sc(Nc3ccc(F)cc3)nc2N)cc(OC)c1OC [5r]
[2]
  average fold reduction of potency relative to 5q (cell growth inhibition): 27 fold

## COc1cc(C(=O)c2sc(Nc3ccc(Cl)cc3)nc2N)cc(OC)c1OC [5s]
[2]
  average fold reduction of potency relative to 5q (cell growth inhibition): 27 fold

## COc1cc(C(=O)c2sc(Nc3ccc(C)cc3)nc2N)cc(OC)c1OC [5t]
[1]; relative to 4a
  times more potent than 4a (tubulin assembly): 5 times
[1]; relative to CA-4
  times more potent than CA-4 (tubulin assembly): 2 times

## COc1ccc(Nc2nc(N)c(C(=O)c3cc(OC)c(OC)c(OC)c3)s2)cc1 [5u]
[2]
  average fold reduction of potency relative to 5q (cell growth inhibition): 83 fold

## COc1ccc(/C=C\c2cc(OC)c(OC)c(OC)c2)cc1O [CA-4, combretastatin A-4]
[3]
  IC50: 2.8 ± 1.1 nM
